Data taken from ChEMBL document CHEMBL1201862, “PubChem BioAssay data set” (2004).
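Five concentrations, 48 hours, 96-well plates. Here, GI50 denotes the concentration required for 50% inhibition of growth.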 Active and inactive are the calls of the source. No stated cut-off is given here; in the data, active = GI50 up to about 1.1 µM and inactive = higher.

How the values were obtained:
Assay in all cases: DTP human tumour cell line panel, 48 h
[1] = tested on: HOP-18
[2] = tested on: KM-20L2
[3] = tested on: LXFL 529
[4] = tested on: M19-MEL
[5] = tested on: RXF 631
[6] = tested on: XF498

Measured: GI50

COC(=O)c1c(-c2ccccc2)cc2c3cc(-c4ccccc4)c(C(=O)OC)n3c3ccccc3n12
inactive: [1] > 100 µM | [2] > 100 µM | [3] > 100 µM | [4] > 100 µM | [5] > 100 µM | [6] > 100 µM
